Data: patent US20170001988A1, “PIPERIDINE AND PIPERAZINE DERIVATIVES AND THEIR USE IN TREATING VIRAL INFECTIONS AND CANCER” (THE UNITED STATES OF AMERICA, AS REPRESENTED BY THE …, priority 2013, published 2017)
Read-outs that look alike come from different tables or passages of the source.

Legend:
HCV-Luc [1] = assay: HCV-Luc infection assay; assay type: cell-based; conditions: for EC50: Hepatitis C virus
in vitro = conditions: human
Source text: (§1) EC50 was generated using the HCV-Luc infection assay and IC50 using the ATPLite assay.
(§2) EC50 was generated using the HCV-Luc infection assay and TC50 using the ATPLite assay.
(§3) The cytotoxicity of the compounds was further evaluated in HepG2 cells and primary human hepatocytes.

Huh7.5.1 cells = assay: in vitro; conditions: human
Source text: as §1, §2, §3

[2] = tested on: HCVcc, genotype 2a, JFH-1 strain; assay: HCVcc assay, extracellular and intracellular viral RNA by quantitative real-time PCR; assay type: cell-based, HCV; conditions: compound at 10 μM; Huh 7.5.1 cells; 48 h; vs DMSO
Protocol: Huh 7.5.1 cells were seeded in 12-well plates (10^5 cells/well) and cultured overnight. HCVcc was used to infect the cells with the treatment of compounds at 10 μM. Virus-containing medium was removed after 4 h incubation and compound treatment was added back followed by incubation for additional 48 h. Intracellular and extracellular viral RNA levels were evaluated by quantitative real-time PCR. The results are illustrated in FIG. 1 and are the means of three replicates ±SEM. […] Cyclosporin A at 10 μM was used as positive control.
Cell Culture-derived HCV (HCVcc, genotype 2a, JFH-1 strain) system provides direct evidence of anti-HCV activity of the compounds.
Cell Culture-derived HCV (HCVcc, genotype 2a, JFH-1 strain) system provides direct evidence of anti-HCV activity of the compounds. Determination of both extracellular and intracellular HCV levels can help evaluate whether the compounds interfere early-stage or late-stage infection. […] Cyclosporin A was tested in parallel to serve as control compound targeting early-stage HCV infection. […] At the highest concentration, cyclosporin A caused approximately 4-log fold reduction in intracellular RNA copies, while the extracellular level reduced less than […]. On the contrary, NCGC00345021 led to only about 1-log fold decrease in intracellular RNA copies when causing 3-log fold reduction in extracellular RNA level. Clearly, when the concentration increased, NCGC00345021 led to a more dramatic reduction in extracellular RNA copies.

HCVsc, genotype 2a = assay type: cell-based, HCV; conditions: 10 μM; Huh 7.5.1 cells; luciferase 48 h
HCV replicon GT 1b = assay type: cell-based; conditions: 10 μM; luciferase 48 h
HCV replicon GT 2a = assay type: cell-based; conditions: 10 μM; luciferase 48 h
replicon GT 1a = assay: Transient replicon assay, GT 1a; assay type: cell-based, HCV; conditions: 10 μM; 48 h; Huh7.5.1 cells
HCVpp GT 1a = assay type: cell-based, HCV; conditions: 10 μM; Huh 7.5.1 cells
HCVpp GT 1b = assay type: cell-based, HCV; conditions: 10 μM; Huh 7.5.1 cells
[3] = ATPlite assay run in parallel with the combination HCV-Luc assay; assay type: cell-based; conditions: (S)-CCZ combined with anti-HCV drugs
Protocol: Combination of ribavirin and peginterferon α (IFN-α) has been the standard of care to treat chronic HCV infection for many years. Direct-acting antivirals, such as telaprevir and daclatasvir, were recently approved for therapy of hepatitis C. The combination of (S)-CCZ with these different classes of anti-HCV drugs is described in this example. HCV-Luc assay in parallel with ATPlite assay was performed in the presence of various concentrations of (S)-CCZ in combination with various concentrations of each drug. Using the MacSynergy II program based on Bliss independence model, three-dimensional surface plots were generated and log volume of synergism was calculated for each combination. The results were also analyzed with the CalcuSyn program, in which the combination indices were calculated.

HCV genotype 1b = assay type: in vivo, mice
HCV genotype 2a = assay type: in vivo, mice
HCV-Luc [4] = assay: HCV-Luc assay of (S)-CCZ combinations, MacSynergy II and CalcuSyn analysis; assay type: cell-based; conditions: for CalcuSyn CI value: (S)-CCZ in combination with the drug named; for antiviral effect of (S)-CCZ with the drug named: combination with (S)-CCZ
Protocol: Direct-acting antivirals, such as telaprevir and daclatasvir, were recently approved for therapy of hepatitis C. […] Using the MacSynergy II program based on Bliss independence model, three-dimensional surface plots were generated and log volume of synergism was calculated for each combination. The results were also analyzed with the CalcuSyn program, in which the combination indices were calculated.

Compound: NCCOCCOCCOCCOCCN1CCN(C(c2ccccc2)c2ccc(Cl)cc2)CC1 (racemic) [(CH2CH2O)4CH2CH2NH2 (R,S), 14-(4-((4-Chlorophenyl)(phenyl)methyl)piperazin-1-yl)-3,6,9,12-tetraoxatetradecan-1-amine]
- EC50 (HCV-Luc [1]; Table 3, read-out: EC50): 4 ± 2.2 nM
- Selective Index (HCV-Luc [1]; Table 3): 3050
- Selective Index (HCV-Luc [1]; Table 4): 3050
- CC50 (in vitro): 12.2 ± 0.8 µM
- CC50 (Huh7.5.1 cells): 12.2 ± 0.8 µM

Compound: CN1CCN(C(c2ccccc2)c2ccc(Cl)cc2)CC1 (racemic) [racemic CCZ, 1-((4-Chlorophenyl)(phenyl)methyl)-4-methylpiperazine, reference compound]
- extracellular viral RNA level [2]: reduced
- intracellular viral RNA level [2]: reduced
- inhibitory activity in the HCVsc infection level (HCVsc, genotype 2a): significant inhibitory activities
- inhibitory effect in replicon GT 1b cell line (HCV replicon GT 1b): did not show much inhibitory effect
- inhibitory effect in replicon GT 2a cell line (HCV replicon GT 2a): did not show much inhibitory effect
- inhibition in transient replicon GT 1a (replicon GT 1a): no inhibition was observed
- inhibitory activity in HCVpp GT 1a (HCVpp GT 1a): None of racemic, (R) and (S)-CCZ showed any inhibitory activities
- inhibitory activity in HCVpp GT 1b (HCVpp GT 1b): None of racemic, (R) and (S)-CCZ showed any inhibitory activities
- EC50 (HCV-Luc [1]; Table 3, read-out: EC50): 44 ± 11 nM
- CC50 (in vitro; Huh7.5.1 cells): 49.8 ± 17.2 µM

Compound: CN1CCN([C@H](c2ccccc2)c2ccc(Cl)cc2)CC1 [(R)-CCZ, (R)-1-((4-Chlorophenyl)(phenyl)methyl)-4-methylpiperazine]
- extracellular viral RNA level [2]: reduced
- intracellular viral RNA level [2]: reduced
- inhibitory activity in the HCVsc infection level (HCVsc, genotype 2a): significant inhibitory activities
- inhibitory effect in replicon GT 1b cell line (HCV replicon GT 1b): did not show much inhibitory effect
- inhibitory effect in replicon GT 2a cell line (HCV replicon GT 2a): did not show much inhibitory effect
- inhibition in transient replicon GT 1a (replicon GT 1a): no inhibition was observed
- inhibitory activity in HCVpp GT 1a (HCVpp GT 1a): None of racemic, (R) and (S)-CCZ showed any inhibitory activities
- inhibitory activity in HCVpp GT 1b (HCVpp GT 1b): None of racemic, (R) and (S)-CCZ showed any inhibitory activities
- EC50 (HCV-Luc [1]; Table 3, read-out: EC50): 20 ± 5 nM
- CC50 (Huh7.5.1 cells): 37.5 ± 4.2 µM

Compound: CN1CCN([C@@H](c2ccccc2)c2ccc(Cl)cc2)CC1 [(S)-CCZ, (S)-1-((4-Chlorophenyl)(phenyl)methyl)-4-methylpiperazine]
- extracellular viral RNA level [2]: reduced
- intracellular viral RNA level [2]: reduced
- inhibitory activity in the HCVsc infection level (HCVsc, genotype 2a): significant inhibitory activities
- inhibitory effect in replicon GT 1b cell line (HCV replicon GT 1b): did not show much inhibitory effect
- inhibitory effect in replicon GT 2a cell line (HCV replicon GT 2a): did not show much inhibitory effect
- inhibition in transient replicon GT 1a (replicon GT 1a): no inhibition was observed
- inhibitory activity in HCVpp GT 1a (HCVpp GT 1a): None of racemic, (R) and (S)-CCZ showed any inhibitory activities
- inhibitory activity in HCVpp GT 1b (HCVpp GT 1b): None of racemic, (R) and (S)-CCZ showed any inhibitory activities
- EC50 (HCV-Luc [1]; Table 3, read-out: EC50): 24 ± 9 nM
- CC50 (Huh7.5.1 cells): 33.4 ± 2.4 µM
- cytotoxicity of the combinations [3]: without significant cytotoxicity
- decrease of genotype 1b virus titer (HCV genotype 1b; 2 mg/kg daily): approximately 1 log
- reduction of HCV titer from pretreatment baseline, genotype 1b (HCV genotype 1b; 50 mg/kg and 10 mg/kg daily, 4 weeks of treatment): 2 log
- HCV titers during the treatment period (drug resistance), genotype 1b (HCV genotype 1b; during treatment): continued to decline during the treatment period without rebound
- reduction of HCV titer from pretreatment baseline, genotype 2a (HCV genotype 2a; 50 mg/kg and 10 mg/kg daily, 6-week treatment): 1.5 log
- HCV titers during the treatment period (drug resistance), genotype 2a (HCV genotype 2a; during treatment): continued to decline during the treatment period without rebound

Compound: CC(C)(C)NC(=O)N[C@H](C(=O)N1C[C@H]2[C@@H]([C@H]1C(=O)NC(CC1CCC1)C(=O)C(N)=O)C2(C)C)C(C)(C)C (stereo partly shown) [Boceprevir]
- CalcuSyn CI value (HCV-Luc [4]): 0.691 ± 0.114

Compound: COC(=O)N[C@H](C(=O)N1CCC[C@H]1c1nc(-c2ccc(-c3ccc(-c4c[nH]c([C@@H]5CCCN5C(=O)[C@@H](NC(=O)OC)C(C)C)n4)cc3)cc2)c[nH]1)C(C)C [Daclataivir]
- CalcuSyn CI value (HCV-Luc [4]): 0.427 ± 0.142

Compound: CCN1CCN([C@@H](c2ccccc2)c2ccc(Cl)cc2)CC1 [Et (S), (S)-1-((4-Chlorophenyl)(phenyl)methyl)-4-ethylpiperazine]
- EC50 (HCV-Luc [1]; Table 3, read-out: EC50): 20 ± 2 nM
- CC50 (in vitro): 40 ± 1.1 µM
- CC50 (Huh7.5.1 cells): 40 ± 1.1 µM

Compound: CC(C)CN1CCC(N(CCc2ccccc2)Cc2ccccc2)CC1 [Isobutyl, N-Benzyl-1-isobutyl-N-phenethylpiperidin-4-amine]
- EC50 (HCV-Luc [1]; Table 6, read-out: EC50): 4760 nM
- CC50 (in vitro): 37.6 µM

Compound: CC(C)N1CCC(N(CCc2ccccc2)Cc2ccccc2)CC1 [Isopropyl, N-Benzyl-1-isopropyl-N-phenethylpiperidin-4-amine]
- EC50 (HCV-Luc [1]; Table 6, read-out: EC50): 940 nM
- CC50 (in vitro): 37.6 µM

Compound: CN1CCC(N(CCc2ccccc2)Cc2ccccc2)CC1 [Me, N-Benzyl-1-methyl-N-phenethylpiperidin-4-amine]
- EC50 (HCV-Luc [1]; Table 6, read-out: EC50): 920 nM
- CC50 (in vitro): 41.1 µM

Compound: c1ccc(CCN(Cc2ccccc2)C2CCN(Cc3ccc4c(c3)OCCO4)CC2)cc1 [N-Benzyl-1-((2,3-dihydrobenzo[b][1,4]dioxin-6-yl)methyl)-N-phenethylpiperidin-4-amine]
- EC50 (HCV-Luc [1]; Table 6, read-out: EC50): 2780 nM
- CC50 (in vitro): 36.6 µM

Compound: c1ccc(CCN(Cc2ccccc2)C2CCN(c3ccccc3)CC2)cc1 [Phenyl, N-Benzyl-N-phenethyl-1-phenylpiperidin-4-amine]
- EC50 (HCV-Luc [1]): > 31600 nM
- CC50 (in vitro): > 100 µM

Compound: O=[S+]([O-])(c1ccccc1)N1CCC(N(CCc2ccccc2)Cc2ccccc2)CC1 [Phenylsulfonyl, N-Benzyl-N-phenethyl-1-(phenylsulfonyl)piperidin-4-amine]
- EC50 (HCV-Luc [1]; Table 6, read-out: EC50): > 32600 nM
- CC50 (in vitro): > 100 µM

Compound: CCCN1CCC(N(CCc2ccccc2)Cc2ccccc2)CC1 [Propyl, N-Benzyl-N-phenethyl-1-propylpiperidin-4-amine]
- EC50 (HCV-Luc [1]; Table 6, read-out: EC50): 370 nM
- CC50 (in vitro): 38.2 µM

Compound: NC(=O)c1ncn([C@@H]2O[C@H](CO)[C@@H](O)[C@H]2O)n1 [Ribavirin]
- CalcuSyn CI value (HCV-Luc [4]): 0.630 ± 0.106
- antiviral effect of (S)-CCZ with the drug named (HCV-Luc [4]): highly synergistic

Compound: CC(C)OC(=O)[C@H](C)N[P@](=O)(OC[C@H]1O[C@@H](n2ccc(=O)[nH]c2=O)[C@](C)(F)[C@@H]1O)Oc1ccccc1 [Sofosbuvir]
- CalcuSyn CI value (HCV-Luc [4]): 0.362 ± 0.075
- antiviral effect of (S)-CCZ with the drug named (HCV-Luc [4]): highly synergistic

Compound: CCC[C@H](NC(=O)[C@@H]1[C@H]2CCC[C@H]2CN1C(=O)[C@@H](NC(=O)[C@@H](NC(=O)c1cnccn1)C1CCCCC1)C(C)(C)C)C(=O)C(=O)NC1CC1 [Telaprevir]
- CalcuSyn CI value (HCV-Luc [4]): 0.426 ± 0.138

Compound: IFN-α
- CalcuSyn CI value (HCV-Luc [4]): 0.609 ± 0.128
- antiviral effect of (S)-CCZ with the drug named (HCV-Luc [4]): highly synergistic
